How the values were obtained:
[1] = molecular target: Matrix metalloproteinase-9 (Homo sapiens, UniProt P14780); assay: Inhibition of MMP9
[2] = molecular target: Stromelysin-1 (Homo sapiens, UniProt P08254)
[3] = molecular target: 72 kDa type IV collagenase (Homo sapiens, UniProt P08253)
[4] = molecular target: Neutrophil collagenase (Homo sapiens, UniProt P22894); assay: Inhibition of MMP8
[5] = molecular target: Collagenase 3 (Homo sapiens, UniProt P45452); assay: Inhibition of MMP13
[6] = molecular target: T1, Interstitial collagenase (Homo sapiens, UniProt P03956)
T1 sequence (P03956 whole entry): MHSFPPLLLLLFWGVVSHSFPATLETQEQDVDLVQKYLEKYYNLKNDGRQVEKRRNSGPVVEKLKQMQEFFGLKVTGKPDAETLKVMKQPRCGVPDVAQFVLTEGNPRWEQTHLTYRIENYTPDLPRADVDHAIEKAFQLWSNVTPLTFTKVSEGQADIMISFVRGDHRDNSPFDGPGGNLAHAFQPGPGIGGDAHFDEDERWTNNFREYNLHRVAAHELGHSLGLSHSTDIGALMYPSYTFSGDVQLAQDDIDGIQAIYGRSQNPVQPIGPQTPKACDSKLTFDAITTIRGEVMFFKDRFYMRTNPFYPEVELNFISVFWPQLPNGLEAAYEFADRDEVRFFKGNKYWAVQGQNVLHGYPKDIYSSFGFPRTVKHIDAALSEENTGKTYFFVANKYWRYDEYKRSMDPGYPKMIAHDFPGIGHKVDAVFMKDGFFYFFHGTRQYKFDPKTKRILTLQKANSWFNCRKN

[7] = Inhibition of bovine aggrecanase; set-up: species or system Bos taurus
[8] = molecular target: Matrix metalloproteinase-14 (Homo sapiens, UniProt P50281); assay: Inhibition of MMP14
[9] = molecular target: Disintegrin and metalloproteinase domain-containing protein 17 (Sus scrofa, UniProt O77636); assay: Inhibition of pig TACE
[10] = molecular target: T2, Matrilysin (Homo sapiens, UniProt P09237)
T2 sequence (P09237 whole entry): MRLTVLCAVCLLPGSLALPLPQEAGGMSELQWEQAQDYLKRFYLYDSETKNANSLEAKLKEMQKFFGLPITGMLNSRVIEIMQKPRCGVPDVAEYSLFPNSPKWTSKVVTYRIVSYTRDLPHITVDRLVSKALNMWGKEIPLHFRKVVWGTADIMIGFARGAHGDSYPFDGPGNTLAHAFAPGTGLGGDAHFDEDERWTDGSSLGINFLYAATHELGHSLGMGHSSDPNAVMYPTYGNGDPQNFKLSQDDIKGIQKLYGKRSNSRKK

[11] = molecular target: T3, Interstitial collagenase (Homo sapiens) (UniProt P03956); assay: Inhibition of MMP1 at 100 uM
T3 sequence (whole entry): T1 sequence (P03956 whole entry)

[12] = Selectivity for TACE over MMP1
[13] = Selectivity for TACE over MMP7
[14] = Selectivity for TACE over BMP1
[15] = Selectivity for TACE over ADAM10
[16] = Selectivity for TACE over MMP14
[17] = Selectivity for TACE over MMP3
[18] = Selectivity for TACE over MMP2
[19] = molecular target: Disintegrin and metalloproteinase domain-containing protein 17 (Homo sapiens, UniProt P78536); assay: Inhibition of TACE
[20] = molecular target: T4, Disintegrin and metalloproteinase domain-containing protein 10 (Homo sapiens, UniProt O14672); assay: Inhibition of ADAM10
T4 sequence (O14672 whole entry): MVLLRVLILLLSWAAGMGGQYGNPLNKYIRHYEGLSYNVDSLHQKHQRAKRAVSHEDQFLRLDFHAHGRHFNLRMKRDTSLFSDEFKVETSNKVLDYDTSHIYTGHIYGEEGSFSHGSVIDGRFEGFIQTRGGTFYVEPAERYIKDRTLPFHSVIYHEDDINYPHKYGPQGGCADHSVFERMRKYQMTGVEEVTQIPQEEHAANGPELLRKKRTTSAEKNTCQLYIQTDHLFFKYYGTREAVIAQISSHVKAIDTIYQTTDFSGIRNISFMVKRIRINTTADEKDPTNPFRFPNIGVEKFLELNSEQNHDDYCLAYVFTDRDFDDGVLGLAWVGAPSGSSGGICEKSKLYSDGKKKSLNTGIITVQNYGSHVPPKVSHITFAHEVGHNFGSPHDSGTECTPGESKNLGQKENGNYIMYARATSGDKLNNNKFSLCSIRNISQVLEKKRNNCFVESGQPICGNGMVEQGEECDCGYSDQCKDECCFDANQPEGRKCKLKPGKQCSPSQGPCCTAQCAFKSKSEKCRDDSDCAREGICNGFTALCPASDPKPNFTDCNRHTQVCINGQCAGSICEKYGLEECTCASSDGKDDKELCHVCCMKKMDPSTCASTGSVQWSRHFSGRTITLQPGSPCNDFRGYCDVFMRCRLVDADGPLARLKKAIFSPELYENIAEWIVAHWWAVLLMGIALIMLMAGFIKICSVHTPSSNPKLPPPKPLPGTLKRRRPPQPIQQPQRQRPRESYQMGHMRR

[21] = molecular target: Stromelysin-3 (Homo sapiens, UniProt P24347); assay: Inhibition of MMP11
[22] = molecular target: Macrophage metalloelastase (Homo sapiens, UniProt P39900); assay: Inhibition of MMP12
[23] = Selectivity for pig TACE over MMP1
[24] = Selectivity for pig TACE over MMP9
[25] = Selectivity for pig TACE over MMP3
[26] = Selectivity for pig TACE over MMP7
[27] = Selectivity for pig TACE over MMP8
[28] = Selectivity for pig TACE over MMP2

Chain of 72 kDa type IV collagenase (P08253 whole entry): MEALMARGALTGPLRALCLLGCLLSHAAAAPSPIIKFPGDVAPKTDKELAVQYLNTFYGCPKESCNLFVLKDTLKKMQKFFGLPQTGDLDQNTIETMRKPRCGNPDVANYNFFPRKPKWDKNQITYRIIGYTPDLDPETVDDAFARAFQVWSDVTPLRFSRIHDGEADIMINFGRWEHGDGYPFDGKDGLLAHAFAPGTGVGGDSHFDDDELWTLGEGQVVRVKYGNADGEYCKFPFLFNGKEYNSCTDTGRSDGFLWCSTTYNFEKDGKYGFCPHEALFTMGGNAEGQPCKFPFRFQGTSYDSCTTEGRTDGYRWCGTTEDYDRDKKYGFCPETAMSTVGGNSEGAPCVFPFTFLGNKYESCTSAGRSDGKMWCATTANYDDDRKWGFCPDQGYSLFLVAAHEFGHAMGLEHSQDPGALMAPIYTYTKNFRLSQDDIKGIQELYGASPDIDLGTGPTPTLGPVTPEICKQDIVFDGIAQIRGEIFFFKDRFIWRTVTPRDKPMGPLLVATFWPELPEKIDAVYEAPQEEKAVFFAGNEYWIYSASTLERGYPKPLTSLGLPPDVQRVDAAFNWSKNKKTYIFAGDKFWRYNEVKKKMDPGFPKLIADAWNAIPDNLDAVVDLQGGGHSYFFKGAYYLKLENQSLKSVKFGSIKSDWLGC
Chain of Neutrophil collagenase (P22894 whole entry): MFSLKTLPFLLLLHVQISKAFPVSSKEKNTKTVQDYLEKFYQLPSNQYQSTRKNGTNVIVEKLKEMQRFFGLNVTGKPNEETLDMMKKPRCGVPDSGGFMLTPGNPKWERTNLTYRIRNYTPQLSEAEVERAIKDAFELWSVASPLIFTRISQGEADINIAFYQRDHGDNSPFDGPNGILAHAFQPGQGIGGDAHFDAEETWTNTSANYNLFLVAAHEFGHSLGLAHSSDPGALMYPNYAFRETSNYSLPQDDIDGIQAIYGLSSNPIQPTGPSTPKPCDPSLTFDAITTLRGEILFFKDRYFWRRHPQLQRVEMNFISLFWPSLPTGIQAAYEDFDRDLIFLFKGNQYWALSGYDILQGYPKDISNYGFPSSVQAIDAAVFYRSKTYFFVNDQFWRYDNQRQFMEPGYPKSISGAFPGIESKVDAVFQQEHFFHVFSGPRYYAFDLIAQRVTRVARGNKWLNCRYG
Chain of Stromelysin-1 (P08254 whole entry): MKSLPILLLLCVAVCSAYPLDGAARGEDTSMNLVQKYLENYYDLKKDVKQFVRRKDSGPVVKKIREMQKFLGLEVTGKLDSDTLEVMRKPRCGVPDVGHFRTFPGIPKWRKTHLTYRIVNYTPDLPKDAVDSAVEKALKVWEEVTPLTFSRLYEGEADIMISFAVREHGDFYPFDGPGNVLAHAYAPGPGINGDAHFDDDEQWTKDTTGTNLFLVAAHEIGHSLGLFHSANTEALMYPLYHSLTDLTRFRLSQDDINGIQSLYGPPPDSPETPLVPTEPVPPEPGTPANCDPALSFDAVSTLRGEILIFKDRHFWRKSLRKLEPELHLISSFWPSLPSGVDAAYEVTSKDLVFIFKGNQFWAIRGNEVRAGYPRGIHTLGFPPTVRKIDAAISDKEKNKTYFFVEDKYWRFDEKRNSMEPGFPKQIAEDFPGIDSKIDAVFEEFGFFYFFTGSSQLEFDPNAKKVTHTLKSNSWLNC
Chain of Matrix metalloproteinase-9 (P14780 whole entry): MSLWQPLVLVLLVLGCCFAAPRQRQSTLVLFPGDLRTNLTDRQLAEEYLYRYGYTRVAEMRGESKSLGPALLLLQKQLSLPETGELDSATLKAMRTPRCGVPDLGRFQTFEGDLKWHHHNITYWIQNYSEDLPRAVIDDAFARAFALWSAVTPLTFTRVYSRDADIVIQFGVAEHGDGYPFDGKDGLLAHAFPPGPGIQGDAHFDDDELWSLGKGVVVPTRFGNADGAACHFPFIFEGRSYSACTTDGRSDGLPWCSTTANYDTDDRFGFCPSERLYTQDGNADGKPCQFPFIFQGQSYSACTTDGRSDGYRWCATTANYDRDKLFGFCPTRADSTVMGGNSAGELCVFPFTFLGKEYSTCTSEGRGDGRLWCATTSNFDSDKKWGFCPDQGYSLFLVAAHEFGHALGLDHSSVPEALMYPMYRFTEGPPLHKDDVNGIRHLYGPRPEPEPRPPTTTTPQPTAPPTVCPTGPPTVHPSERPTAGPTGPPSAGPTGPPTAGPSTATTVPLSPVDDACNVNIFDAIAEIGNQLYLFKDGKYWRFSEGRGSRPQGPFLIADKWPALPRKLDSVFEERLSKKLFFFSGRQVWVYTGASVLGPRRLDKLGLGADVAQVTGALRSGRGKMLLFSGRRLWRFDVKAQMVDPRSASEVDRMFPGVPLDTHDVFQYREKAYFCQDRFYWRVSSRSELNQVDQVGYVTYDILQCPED
Chain of Disintegrin and metalloproteinase domain-containing protein 17 (Homo sapiens, UniProt P78536) (P78536 whole entry, the tested form may be a part): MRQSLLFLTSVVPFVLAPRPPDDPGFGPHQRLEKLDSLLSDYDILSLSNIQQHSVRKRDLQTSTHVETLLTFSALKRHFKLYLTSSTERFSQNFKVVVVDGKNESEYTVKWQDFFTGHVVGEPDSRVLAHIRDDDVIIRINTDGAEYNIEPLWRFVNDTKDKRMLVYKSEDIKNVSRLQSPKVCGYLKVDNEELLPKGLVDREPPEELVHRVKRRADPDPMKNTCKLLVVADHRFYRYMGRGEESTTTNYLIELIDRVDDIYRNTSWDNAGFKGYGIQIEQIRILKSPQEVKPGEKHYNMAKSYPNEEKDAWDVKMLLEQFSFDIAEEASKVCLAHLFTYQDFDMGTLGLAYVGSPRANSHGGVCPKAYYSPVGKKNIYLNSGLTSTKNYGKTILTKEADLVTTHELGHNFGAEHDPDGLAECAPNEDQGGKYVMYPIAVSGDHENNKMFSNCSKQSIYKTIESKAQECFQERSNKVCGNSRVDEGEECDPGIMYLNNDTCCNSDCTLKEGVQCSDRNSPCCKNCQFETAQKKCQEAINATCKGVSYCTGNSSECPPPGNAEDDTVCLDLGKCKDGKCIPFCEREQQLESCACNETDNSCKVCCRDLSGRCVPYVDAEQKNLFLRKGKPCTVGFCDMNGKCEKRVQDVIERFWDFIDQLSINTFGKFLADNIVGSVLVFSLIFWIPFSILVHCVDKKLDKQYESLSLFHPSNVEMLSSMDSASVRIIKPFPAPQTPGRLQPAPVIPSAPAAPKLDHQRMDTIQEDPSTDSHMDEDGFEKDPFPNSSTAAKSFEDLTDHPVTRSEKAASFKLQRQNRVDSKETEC
Chain of Macrophage metalloelastase (P39900 whole entry): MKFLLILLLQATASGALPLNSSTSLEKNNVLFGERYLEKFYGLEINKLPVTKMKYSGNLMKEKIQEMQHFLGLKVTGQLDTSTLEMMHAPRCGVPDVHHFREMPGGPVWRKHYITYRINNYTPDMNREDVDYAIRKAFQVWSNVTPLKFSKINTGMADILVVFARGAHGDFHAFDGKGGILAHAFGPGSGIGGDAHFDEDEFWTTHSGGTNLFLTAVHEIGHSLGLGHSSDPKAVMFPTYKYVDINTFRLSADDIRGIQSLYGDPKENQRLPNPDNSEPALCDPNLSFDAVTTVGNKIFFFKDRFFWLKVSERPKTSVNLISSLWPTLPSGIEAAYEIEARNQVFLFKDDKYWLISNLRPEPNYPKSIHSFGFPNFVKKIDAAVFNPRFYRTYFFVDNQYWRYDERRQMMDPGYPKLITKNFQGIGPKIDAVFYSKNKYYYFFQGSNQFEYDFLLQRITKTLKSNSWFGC
Chain of Disintegrin and metalloproteinase domain-containing protein 17 (Sus scrofa, UniProt O77636) (O77636 whole entry, the tested form may be a part): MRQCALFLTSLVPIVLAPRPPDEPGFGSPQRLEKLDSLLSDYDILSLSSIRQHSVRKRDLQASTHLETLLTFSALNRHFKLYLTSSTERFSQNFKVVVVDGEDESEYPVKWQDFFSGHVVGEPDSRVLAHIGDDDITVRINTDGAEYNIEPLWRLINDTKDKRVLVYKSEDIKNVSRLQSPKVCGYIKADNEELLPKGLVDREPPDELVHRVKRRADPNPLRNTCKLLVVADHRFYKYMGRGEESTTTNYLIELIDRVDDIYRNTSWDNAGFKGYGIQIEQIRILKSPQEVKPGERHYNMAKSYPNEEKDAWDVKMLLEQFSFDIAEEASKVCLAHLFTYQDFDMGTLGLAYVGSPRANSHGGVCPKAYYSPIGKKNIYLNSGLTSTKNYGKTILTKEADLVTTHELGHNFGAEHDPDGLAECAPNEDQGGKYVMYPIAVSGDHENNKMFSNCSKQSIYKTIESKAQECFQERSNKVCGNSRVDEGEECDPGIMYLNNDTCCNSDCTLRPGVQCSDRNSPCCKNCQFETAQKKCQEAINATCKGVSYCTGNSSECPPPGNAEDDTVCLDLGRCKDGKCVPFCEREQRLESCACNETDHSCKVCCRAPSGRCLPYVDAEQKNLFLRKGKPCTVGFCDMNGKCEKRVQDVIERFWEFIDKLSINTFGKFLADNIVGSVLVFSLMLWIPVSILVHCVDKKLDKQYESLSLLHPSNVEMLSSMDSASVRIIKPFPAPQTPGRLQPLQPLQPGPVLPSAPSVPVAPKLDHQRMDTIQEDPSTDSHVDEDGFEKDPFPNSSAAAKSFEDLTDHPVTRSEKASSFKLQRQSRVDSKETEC
Chain of Stromelysin-3 (P24347 whole entry): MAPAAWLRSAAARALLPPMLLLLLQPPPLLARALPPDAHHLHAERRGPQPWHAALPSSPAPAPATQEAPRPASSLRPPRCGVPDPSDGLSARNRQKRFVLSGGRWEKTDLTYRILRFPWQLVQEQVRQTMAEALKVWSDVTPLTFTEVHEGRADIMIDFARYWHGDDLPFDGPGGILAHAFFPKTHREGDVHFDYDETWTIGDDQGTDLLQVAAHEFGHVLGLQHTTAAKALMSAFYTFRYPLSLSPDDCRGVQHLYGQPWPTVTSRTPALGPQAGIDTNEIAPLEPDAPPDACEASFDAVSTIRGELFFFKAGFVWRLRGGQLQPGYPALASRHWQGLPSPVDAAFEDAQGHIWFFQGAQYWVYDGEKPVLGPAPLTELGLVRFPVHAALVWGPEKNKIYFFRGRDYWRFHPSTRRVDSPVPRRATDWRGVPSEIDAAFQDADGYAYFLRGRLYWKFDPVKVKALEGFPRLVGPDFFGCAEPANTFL

SMILES: O=C(O)C[C@@H](NC(=O)c1cc(-c2ccc(-c3ccncc3)cc2)cs1)c1ccccc1
- IC50 [1]: 980 nM
- IC50 [2]: 390 nM
- IC50 [3]: > 100000 nM
- IC50 [4]: 1700 nM

SMILES: CC1(CN[C@H](C(=O)NO)[C@@H](Cc2cccc(O)c2)C(=O)N[C@H]2c3ccccc3C[C@H]2O)CC1
- Ki [1]: < 1 nM
- Ki [2]: > 4.5 µM
- Ki [3]: > 3000 nM
- Ki [5]: > 5000 nM
- Ki [6]: 5.25 µM
- IC50 [7]: 8 nM

SMILES: Cc1cc(COc2ccc(S(=O)(=O)CC(C=C3CCN(CC(C)C)CC3)N(O)C=O)cc2)c2ccccc2n1 (configuration not stated)
- IC50 [6]: > 100 µM
- IC50 [4]: > 100000 nM
- IC50 [8]: > 100000 nM

SMILES: Cc1cc(COc2ccc(C(=O)Nc3ccccc3C(=O)c3c[nH]c(=O)[nH]3)cc2)c2ccccc2n1
- IC50 [9]: 9 nM
- Ki [10]: > 636 nM

SMILES: COC[C@@H](NC(=O)[C@@H](NC(=O)[C@H](CCCc1ccc(-c2ccccc2)c(C)c1)CC(=O)O)C(C)(C)C)c1ccccc1
- inhibition [11]: 20%

SMILES: COC(=O)[C@]1(c2cccc(OCc3cc(C)nc4ccccc34)c2)C[C@H]1C(=O)NO
- fold change (FC) [12]: > 8300
- fold change (FC) [13]: > 8300
- fold change (FC) [14]: 1400
- fold change (FC) [15]: 4
- fold change (FC) [16]: 770
- fold change (FC) [17]: 1300
- fold change (FC) [18]: 3400

SMILES: COC[C@@H](NC(=O)[C@@H](NC(=O)[C@H](CCCc1ccc(-c2ccccc2)c(C)c1)CC(=O)NO)C(C)(C)C)c1ccccc1
- IC50 [1]: 560 nM
- IC50 [2]: 2.1 nM
- IC50 [3]: 750 nM
- IC50 [6]: 5.9 µM
- IC50 [8]: 930 nM

SMILES: CC#CCOc1ccc(S(=O)(=O)N[C@@H](C(=O)NO)[C@H](C)O)cc1
- IC50 [1]: 777 nM
- IC50 [10]: 961 nM
- IC50 [5]: 96 nM
- IC50 [6]: 2.47 µM
- IC50 [4]: 35 nM
- IC50 [19]: 2 nM
- IC50 [8]: 582 nM
- IC50 [20]: 1090 nM

SMILES: CCCN1C(=O)[C@H](CS)NC(=O)[C@@H]1Cc1ccc([N+](=O)[O-])cc1
- IC50 [2]: > 20000 nM

SMILES: COc1ccccc1SC[C@H](CP(=O)(O)[C@H](Cc1ccccc1)NC(=O)OCc1ccccc1)C(=O)N[C@@H](Cc1c[nH]c2ccccc12)C(N)=O
- Ki [1]: 35.6 nM
- Ki [3]: 30 nM
- Ki [5]: 15.7 nM
- Ki [4]: 38.9 nM
- Ki [8]: 160 nM
- Ki [21]: 0.23 nM

SMILES: CC#CCOc1ccc(S(=O)(=O)CC2(C(=O)NO)CCN(c3c(C)noc3C)CC2)cc1
- IC50 [1]: 5500 nM
- IC50 [3]: 664 nM
- IC50 [5]: 2280 nM
- IC50 [6]: 37.3 µM
- IC50 [19]: 2.2 nM
- IC50 [8]: 24000 nM

SMILES: COc1ccc(C2=NNC3(S2)C(=O)N(Cc2ccccc2)c2ccc(C)cc23)cc1 (configuration not stated)
- IC50 [22]: > 22 µM
- IC50 [5]: > 100000 nM

SMILES: Cc1cc(COc2ccc(C(=O)N[C@@H]3CCOC[C@@H]3C(=O)NO)cc2)c2ccccc2n1
- fold change (FC) [23]: > 30000
- fold change (FC) [24]: > 14000
- fold change (FC) [25]: 427
- fold change (FC) [26]: 200
- fold change (FC) [27]: 5500
- fold change (FC) [28]: > 30000
